Measurements as given in patent US11952582B2, “Herbicide-resistance gene and application thereof in plant breeding” (priority 2017, dated 2024).

Tests used:
[1] = test system: Arabidopsis WT, OE At, OE Pa, OE M3 potted plants; test: Herbicide resistance of Arabidopsis at pot level (spray); type: in vivo, Arabidopsis thaliana
Method: 2 week-old Arabidopsis seedlings of WT, OE At, OE Pa, and OE M3 were transplanted into soil-filled pots (12 seedlings per pot) and growth in a phytotron (22° C., 14 h light/10 h dark, 120 μmol m^−2 s^−1 light intensity) for 4 weeks. Then, 5 μM mesotrione solution (prepared with 0.05% Tween-20) were sprayed twice with a treatment interval of 3 days, and compared with the control treatment (0.05% Tween-20 without herbicide). The spray treatment was biologically repeated 3 times. Two weeks after the first herbicide spray, the test results were photographed.

[2] = test system: Arabidopsis WT, OE At, OE Pa, OE M3 seedlings; test: Herbicide resistance after Arabidopsis germination (seedlings transferred to herbicide medium); type: in vivo, Arabidopsis thaliana
Method: In order to further confirm the correctness of the results obtained in the germination test, an analysis experiment on herbicide resistance after Arabidopsis germination was conducted. Arabidopsis seedlings germinated by OE At, OE Pa, OE M3 and WT for 7 days were transferred to ½ MS medium containing different concentrations (0, 100, 250, 500, and 1000 nM) of mesotrione and grown for 1 week. 5 seedlings were treated per genotype with 3 biological replicates. After 1 week, the effect of the herbicide treatment (i.e., albino) was photographed.

[3] = test system: Arabidopsis WT, OE At, OE Pa, OE M3 plants; test: Total chlorophyll and carotenoid content of Arabidopsis rosette leaves; type: in vivo, Arabidopsis thaliana
Method: The leaves (rosette leaves) of 2 week-old plants grown in ^1/2 MS medium containing different concentrations (0, 100, 250, 500 and 1000 nM) of mesotrione were collected, including leaves of OE At, OE Pa, OE M3 and WT. The total chlorophyll and carotenoid were extracted and the content thereof was detected by referring to the method of Lichtenthaler HK (1987). All experiments were repeated biologically 3 times, and the average value was taken.

[4] = test system: WT (William 82) and OE PaHPPD-SDM soybean leaves; test: Soybean resistance to herbicide at leaf level (leaf coating); type: in vivo; details: leaf coating 0-30 μM, 2 weeks
Method: Transgenic T0 generation OE SDMHPPD and WT soybean (William 82) seedlings were planted in pots and placed in an artificial climate room (27° C., […], light/dark) for growth. After 4 weeks, 0, 1, 5, 10 and 30 μM of mesotrione (prepared with 0.1% Tween-20) and 0.1% Tween-20 were dipped with cotton swabs and evenly coated to the leaves of OE SDMHPPD (OE SDM #12 and OE SDM #13) T0 generation and WT seedlings having a height of 30-40 cm. Then, the phenotype was observed every week, and the experimental result was recorded by taking photos 2 weeks after the treatment.
To further test the resistance of transgenic soybeans to herbicides, 20 μM mesotrione (prepared with 0.1% Tween-20) and 0.1% Tween-20 were dipped with cotton swabs and evenly coated to the trifoliate leaves of 2 week-old WT, OE GmHPPD (OE GmHPPD #9) T1 generation seedlings and OE SDMHPPD (OE SDMHPPD #12) T1 generation. Then, the phenotype was observed every day, and the experimental result was recorded by taking photos 10 days after the treatment.

[5] = test system: WT and T0 OE SDM rice leaves; test: Oxidative stress indexes of rice leaves (NBT, DAB staining); type: in vivo; details: 1 week; for O2 and H2O2 accumulation in leaves (NBT, DAB): 200 μM
Method: Herbicides cause the production of reactive oxygen species (ROS), leading to cell death. In order to determine the oxidation state of rice, leaves of wild-type and TO-generation OE SDM rice which were sprayed with 200 μM mesotrione (prepared with 0.1% Tween-20) and sprayed with control 0.1% Tween-20 were collected, and stained with nitroblue tetrazolium (NBT) and 3,3-diaminobenzidine (DAB), respectively, to analyze the accumulation of superoxide (O2^−) and hydrogen peroxide (H2O2).
At the end of the herbicide treatment, leaves of 4 week-old rice (normal growth for 3 weeks and herbicide spray treatment for 1 week) were placed in a 3.5 mg mL^−1 nitroblue tetrazolium (N6876, Sigma-Aldrich) staining solution (potassium phosphate buffer containing 10 mM NaN3), soaked in vacuum, and shaked on a shaker overnight. The NBT-stained plants were destained with a mixed solution of acetic acid:glycerol:ethanol=1:1:3 (v/v/v) at 100° C. for 5 min, and then reserved in a mixed solution of glycerol:ethanol=1:4 (v/v).
Rice seedling leaves were soaked in DAB staining solution for 2 min under vacuum, and then placed in a shaker for 7-8 h. The DAB-stained plants were destained with a mixed solution of acetic acid:glycerol:ethanol=1:1:3 (v/v/v) at 100° C. for 5 min, and then reserved in a mixed solution of glycerol:ethanol=1:4 (v/v).

[6] = test system: Arabidopsis WT (Col0), OE At, OE Pa, OE M3 lines; test: Arabidopsis seed germination test on herbicide-containing 1/2 MS medium; type: in vivo, Arabidopsis thaliana; details: 2 weeks
Method: In order to evaluate the resistance of different HPPD overexpression lines to herbicides, Arabidopsis seed germination tests were performed on media containing different concentrations of herbicides. T3 generation Arabidopsis seeds and Co10 (WT) seeds were performed steam surface sterilization (concentrated HCl: NaClO=1:5, v/v) for 3 h. Seeds of OE At (OE At #1, OE At #2), OE Pa (OE Pa #1, OE Pa #2), OE M3 (OE M3 #1, OE M3 #2) and Co10 (WT) were dibbled together in ^1/2 MS medium (0.5 x MS salt, 1% sucrose and 0.8% agar) in a 24-well plate, and the medium contained different concentrations (0, 31.25, 62.5, 125, 500 and 2000 nM) of mesotrione (Sigma Aldrich, USA) and sulcotrione (Sigma Aldrich, USA). Then, the plate dibbled seeds was placed in the dark at 4° C. for 3 d, and then transferred to a growth chamber at 22° C. (16 h light/8 h dark) for 2 weeks. Three biological replicates were performed per treatment per species. After 2 weeks, the test results were photographed.

[7] = test system: WT and T0 OE SDM rice seedlings; test: Total chlorophyll content in rice leaves; type: in vivo; details: 200 μM
Method: Referring to the method of Lichtenthaler HK (1987), chlorophyll was extracted from the leaves of wild-type and T0 generation OE SDM rice seedlings which were sprayed with 200 μM mesotrione (prepared with 0.1% Tween-20) and sprayed with control 0.1% Tween-20 after 2 weeks and its content was determined. All experiments were repeated biologically 3 times, and the average value was taken.

For CS(=O)(=O)c1ccc(C(=O)C2C(=O)CCCC2=O)c([N+](=O)[O-])c1 [mesotrione], which “maximum tolerance concentration under potted conditions” value ([1]; Arabidopsis overexpressing PaHPPD-M3, sprayed on fully expanded leaves) is on record?
The value was 5 µM.

What about the phenotype ([1]; OE M3 line, 5 μM sprayed twice, 2 weeks after first spray) of the same compound?
The phenotype was “grows well”.

What about the “phenotype of new leaves of seedlings” value ([1]; WT, OE At and OE Pa lines, 5 μM sprayed twice, 2 weeks after first spray) of the same compound?
Its value is “completely albino”.

What about the cotyledon phenotype ([2]; OE At and OE Pa, 250 nM, 1 week) of the same compound?
Its cotyledon phenotype is “albino”.

And the “concentration at which seedlings grew well (maximum tolerance concentration of seedlings)” value ([2]; OE M3, 7-day seedlings, 1 week on 1/2 MS medium)?
The value was 250 nM.

What about the “concentration at which cotyledons were albino” value ([2]; WT, 7-day seedlings, 1 week on 1/2 MS medium) of the same compound?
Its value is 100 nM.

And the “total chlorophyll and carotenoid content of leaves with the increase of herbicide concentration” value ([3]; WT, OE At, OE Pa and OE M3, 0-1000 nM in 1/2 MS medium)?
The value was “decreased”.

And the “total chlorophyll and carotenoid content of OE M3 compared with WT, OE At and OE Pa” value ([3]; same herbicide concentration)?
Its value is “significantly higher”.

What about the “concentration at which leaves did not show symptoms of albino (bleaching) and damage” value ([4]; OE PaHPPD-SDM soybean line) of the same compound?
Its value is 30 µM.

What about the “concentration at which leaves showed albino (bleaching) symptom” value ([4]; wild-type soybean William 82) of the same compound?
The value was 5 µM.

What about the “contents of superoxide, H2O2 and MDA in WT rice leaves compared with OE SDM rice leaves” value ([5]; 200 μM spray) of the same compound?
The value was “significantly higher”.

What about the “O2 and H2O2 accumulation in leaves (NBT, DAB)” value ([5]; OE SDM rice) of the same compound?
The value was “little”.

What about the “O2 and H2O2 accumulation in leaves (NBT, DAB)” value ([5]; WT rice) of the same compound?
Its value is “large number”.

And the “concentration giving albino death / severely inhibited growth” value ([6]; OE At (two lines) and WT)?
Its value is 31.25 nM.

What about the “concentration at which seedlings grow normally” value ([6]; OE Pa (two lines), T3 seeds) of the same compound?
The value was 62.5 nM.

And the “chlorophyll content of leaves after treatment” value ([7]; OE PaHPPD-SDM rice)?
The value was “did not decrease significantly”.

What about the “total chlorophyll content in leaves compared with treated OE SDM rice” value ([7]; WT rice, 2 weeks) of the same compound?
Its value is “greatly reduced”.
